Data on 7 compounds can be found in EP2465859A1, “8-Triazolylxanthine derivatives, processes for their production and their use as adenosine receptor antagonists” (Life & Brain GmbH, priority 2010, dated 2012).

Structures are written as SMILES.

Type in all cases: cell-based
The target of one experiment is T1, human A2B receptor (Homo sapiens, UniProt P29275).
T1 construct: expressed in transfected cells; host or cells: HEK cells
T1 sequence (P29275 1-332): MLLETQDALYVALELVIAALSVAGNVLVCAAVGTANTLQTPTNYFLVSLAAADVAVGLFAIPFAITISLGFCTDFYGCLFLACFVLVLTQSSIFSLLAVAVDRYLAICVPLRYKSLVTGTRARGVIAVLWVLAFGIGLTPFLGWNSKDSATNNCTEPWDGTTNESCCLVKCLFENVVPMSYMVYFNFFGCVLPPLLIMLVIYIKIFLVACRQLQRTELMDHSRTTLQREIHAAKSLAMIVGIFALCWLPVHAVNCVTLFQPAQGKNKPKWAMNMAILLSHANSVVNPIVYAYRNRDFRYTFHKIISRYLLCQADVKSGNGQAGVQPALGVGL
Kind of experiment: cAMP assay in HEK cells recombinantly expressing the human A2B receptor. In general terms: Changes in cAMP serve as a functional read-out for many G protein-coupled receptors.

The test system of experiment [1] is TNFα expression in ESdM cells. Kind of experiment: ELISA assay: TNFα expression in ESdM cells stimulated with LPS and NECA or adenosine. Conditions: for IC50: 24 h, LPS-induced TNFα expression in the presence of NECA (100 nM NECA, 100 ng/ml LPS), read-out: EC50 (the source's name); for TNF alpha expression: 100 nM NECA, various antagonist concentrations; for functional character at human A2B adenosine receptors: conclusion from the ELISA functional experiment. Here is the method: With the ELISA assay in Fig. 5 the effects of adenosine receptor antagonists were investigated. […] In the presence of the antagonists to be investigated, the influence on the TNFα expression was analyzed. The cytokine expression was determined in the ELISA.
The determined EC50 concentration amounted to 60 nM. ESdM cells were stimulated with 100 nM of NECA and 100 ng/ml of LPS, and the A2B antagonist 1a was added to the stimulated cells at various concentrations for 24 h. The supernatants of the cells were investigated for TNFα expression in an ELISA.
Example 53: ELISA Assay The ELISA assay was used to investigate the effects of adenosine antagonists. […] In the presence of the antagonists to be investigated, their influence on TNFα expression was analyzed. The cytokine expression was determined in the ELISA (Fig. 5).
To evaluate, whether ESdM cells can be stimulated by Adenosine 3 x 10^5 ESdM cells were seeded in 12 wells. The next day the cells have been stimulated with 1 µM Adenosine (Sigma-Aldrich) and different concentrations of LPS (10 ng/ml, 100 ng/ml and 500 ng/ml, Sigma-Aldrich). Supernatants were collected 24 hours later and were analysed for TNFα expression in an ELISA (EBioscience). As shown here (Fig. 6A), ESdM cells are sensitive for stimulation with 1 µM adenosine. Best results are achieved with a LPS concentration of 100 ng/ml, whereas 500 ng/ml of LPS provide […] detectable TNFα values.
To examine, if ESdM cells can also be stimulated with the synthetic adenosine receptor agonist NECA, ESdM cells were seeded in 12 wells in the same concentration as mentioned before. These cells were treated with different concentrations of NECA (1 µM and 100 nM) and 100 ng/ml LPS. The next day supernatants were collected and analysed for TNFα expression.
To analyse the effect of the A2B antagonist 1a, 3 x 10^5 ESdM cells were seeded in 12 wells. The next day cells were stimulated with 100 nM NECA, 100 ng/ml LPS and various concentrations (10 pM-10 nM) of A2B-receptor antagonist 1a Supernatants of the cells were investigated for TNFα expression in an ELISA.
A general note: ELISA stands for enzyme-linked immunosorbent assay.

The target in experiment [2] is T2, human adenosine A2B receptor (Homo sapiens, UniProt P29275).
T2 construct: expressed in transfected cells; host or cells: CHO cells
T2 sequence (P29275 1-332): T1 sequence (P29275 1-332)
Kind of experiment: cAMP assay in CHO cells recombinantly expressing the human adenosine A2B receptor (NECA dose-response curve shift). Conditions: for NECA-induced increase in cAMP formation / mode of antagonism (NECA curve shifted to the right): single antagonist concentration, ~5-fold of the Ki value. As to the method:
Dose-response curves for the agonist NECA were determined in the absence and in the presence of a single concentration of the new antagonists 1d and 1f, using a ∼ 5-fold concentration of the Ki-values.

Description for human A2B receptor: Example 52: cAMP assay The preparation of cAMP binding protein was carried out as previously described by Nordstedt and Fredholm (Anal. Biochem. 1990, 189, 231-234). 5'-(N-Ethylcarboxamido)adenosine (NECA) was obtained from Sigma. For cAMP experiments HEK cells, expressed the human recombinant A2B receptor were removed from a confluent 175 cm^2 flask, transferred into a falcon tube and spun down at 200 g, 4 °C for 5 min. After removal of the supernatant, the cell pellet was resuspended in Hank's buffered saline solution (HBSS, pH 7.4). 200 µl of the cell solution (∼ 200.000 cells per well) with 2 U/ml ADA was transferred into each well of a 24-well plate. After an incubation time of 1.5 h at 37 °C, 5 % CO2, 25 µL of the phosphodiesterase (PDE) inhibitor Ro-20-1724 (40 µM f.c.), dissolved in 100 % HBSS-puffer was added to each well and incubated for 10 min at 37 °C. […] After 10 min incubation time 12.5 µl of agonist (NECA) dissolved in the same buffer as well, was added and incubated for 15 min at 37 °C. NECA was incubated in concentrations of 10 µM and 1 µM alone as an control experiment. […] Well plates were put on ice and each well was subsequently homogenised by pipetting 6-7 times up and down. Competition binding experiments were performed in a final volume of 120 µl containing 50 µl of cell lysates, 30 µl of [^3H]cAMP (f.c. 3 nM) in lysis buffer (4 mM EDTA, 0.01 % trition X-100) and 40 µl of cAMP binding protein in the same buffer (50 µg protein per vial). Total binding was determined in the absence of cold cAMP and nonspecific binding was determined in the absence of cold cAMP and without binding protein. For a cAMP standard curve 50 µl of known cAMP concentration was put instead of 50 µl cell lysate. […] Then, filters were transferred to vials, incubated for 9 h with 2.5 mL of scintillation cocktail (Beckmann Coulter), and counted in a liquid scintillation counter (Tricarb 2700TR) with a counting efficiency of ∼ 54%.

Turning to `Cn1c(=O)c2[nH]c(-c3cn(Cc4cccc(C(F)(F)F)c4)nn3)nc2n(C)c1=O` [1a, 1,3-Dimethyl-8-(1-(3-(trifluoromethyl)benzyl)-1H-1,2,3-triazol-4-yl)-1H-purine-2,6(3H,7H)-dione], on human A2B receptor (NECA 10 µM and 1 µM, antagonist 5 µM), the “NECA-induced increase in cAMP formation” value is listed as “inhibited”. At human A2B receptor (compound alone), the “effect on cAMP levels of the compound itself” value is on record as “no effect”. Besides, in experiment [1] (ESdM cells), the IC50 came out at 2600 nM. Moreover, in experiment [1] (ESdM cells, 100 nM NECA and 100 ng/ml LPS, antagonist for 24 h, TNFα in supernatant (Fig. 7A), read-out: EC50 concentration), the EC50 is 60 nM. Also, in experiment [1] (ESdM cells, 100 ng/ml LPS), the TNF alpha expression entry is “dose-dependent decrease”. For the same compound, the “functional character at human A2B adenosine receptors” value (shortened to “functional character”) in experiment [1] is listed as “confirmed as antagonists”.

On to `CCn1c(=O)c2[nH]c(-c3cn(Cc4cccc(C(F)(F)F)c4)nn3)nc2n(CC)c1=O` [1b, 1,3-Diethyl-8-(1-(3-(trifluoromethyl)benzyl)-1H-1,2,3-triazol-4-yl)-1H-purine-2,6(3H,7H)-dione], for which, in experiment [1] (ESdM cells), the IC50 is 1090 nM. Further, the TNF alpha expression entry in experiment [1] (ESdM cells, 100 ng/ml LPS) is “dose dependent decrease”. Also, the “functional character” value in experiment [1] is recorded as “confirmed as antagonists”.

Consider `CCCn1c(=O)[nH]c2nc(-c3cn(Cc4cccc(C(F)(F)F)c4)nn3)[nH]c2c1=O` [1d, 1-Propyl-8-(1-(3-(trifluoromethyl)benzyl)-1H-1,2,3-triazol-4-yl)-1H-purine-2,6(3H,7H)-dione], for which, in experiment [2], the “NECA-induced increase in cAMP formation” value is recorded as “inhibited” and the “mode of antagonism (NECA curve shifted to the right)” value was “competitive antagonism”. In experiment [1] (ESdM cells), the IC50 turned out to be 1110 nM. For the same compound, the TNF alpha expression entry in experiment [1] (ESdM cells, 100 ng/ml LPS) is “dose dependent decrease”. The “functional character” value in experiment [1] is reported as “confirmed as antagonists”.

For `C#CCn1c(=O)c2[nH]c(-c3cn(Cc4cccc(C(F)(F)F)c4)nn3)nc2n(C)c1=O` [1f, 3-Methyl-1-(prop-2-ynyl)-8-(1-(3-(trifluoromethyl)-benzyl)-1H-1,2,3-triazol-4-yl)-1H-purine-2,6(3H,7H)-dione], in experiment [2], the “NECA-induced increase in cAMP formation” value was “inhibited” and the “mode of antagonism (NECA curve shifted to the right)” value is given as “competitive antagonism”. In addition, the IC50 in experiment [1] (ESdM cells) was found to be 1360 nM. In addition, the TNF alpha expression result in experiment [1] (ESdM cells, 100 ng/ml LPS) is listed as “dose dependent decrease”. Also, in experiment [1], the “functional character” value is “confirmed as antagonists”.

In the case of `Cn1c(=O)n(CC2CC2)c(=O)c2[nH]c(-c3cn(Cc4cccc(C(F)(F)F)c4)nn3)nc21` [1g, 1-(Cyclopropylmethyl)-3-methyl-8-(1-(3-(trifluoromethyl)benzyl)-1H-1,2,3-triazol-4-yl)-1H-purine-2,6(3H,7H)-dione], the IC50 in experiment [1] (ESdM cells) worked out at 2320 nM. The TNF alpha expression entry in experiment [1] (ESdM cells, 100 ng/ml LPS) is listed as “dose dependent decrease”. Also, the “functional character” value in experiment [1] is “confirmed as antagonists”.

Take `CCNC(=O)[C@H]1O[C@@H](n2cnc3c(N)ncnc32)[C@H](O)[C@@H]1O` [NECA, 5'-(N-Ethylcarboxamido)adenosine, reference compound]: the cAMP formation entry is “concentration-dependent increase” at human A2B receptor (agonist, 10 µM and 1 µM); “concentration-dependent increase” in experiment [2] (agonist dose-response curve). Besides, the “stimulation of TNFα expression in ESdM cells following LPS stimulation” value in experiment [1] (1 µM and 100 nM NECA, 100 ng/ml LPS) was “sensitive”.

For the compound `Nc1ncnc2c1ncn2[C@@H]1O[C@H](CO)[C@@H](O)[C@H]1O` [adenosine], in experiment [1] (1 µM adenosine, LPS 10, 100 and 500 ng/ml, 24 hours), the “stimulation of TNFα expression in ESdM cells following LPS stimulation” value is listed as “sensitive”.
